Assay results published in patent publication US20260306421A1, “SYSTEMS AND METHODS FOR TRANSDERMAN PATCH DELIVERY” (VITAMAX PATCH WHOLESALER LLC, priority 2022, published 2026).

Key:
[1] = Cholecalciferol phosphate disodium patch release; format: in vitro ADME; conditions: control solution in PG, 24 h
Experimental: The patch was produced by mixing 82.9 μL of the adhesive, 1.92 μL of PG and the 4 mg of cholecalciferol phosphate disodium (Table 39). The patch formulation was cast into an in-house rectangular tray measuring 10 by 10 cm. The mixture was left to cure for 3-4 h. The laminate was then added to the adhesive and circles of 34 mm diameter were cut using a dye cutting machine and the release of the cholecalciferol was assessed using the Franz diffusion cells fitted with a nylon membrane over 24 h. A nylon membrane (0.20 μm) was glued to the receiver chamber and no donor chamber was employed to allow the patch to be placed directly on the surface of the nylon membrane. A cholecalciferol phosphate disodium saturated PG solution was used as a comparator with the standard Franz cell set-up previously described. The receiver fluid was 80% PG 20% water for both release testing from the solution and the patch.

[2] = Chemical stability of cholecalciferol and cholecalciferol phosphate disodium in donor, extraction and receiver fluids; format: physicochemical; conditions: for chemical stability: 37° C., 24 h
Experimental: To assess the chemical stability of the test agents in the liquids in which they were to be dissolved for the skin permeation experiments, 1 mg/mL solutions of cholecalciferol and cholecalciferol phosphate disodium in propylene glycol (PG) were prepared and incubated at 37° C. for 24 h. In addition, 100 μg/mL cholecalciferol in 50:50 PG:ethanol mixture, 100 μg/mL cholecalciferol phosphate disodium in 90:10 methanol:water mixture as well as and in 50% PG 40% Methanol: 10% water pH 3.2 (90:10) were also incubated at 37° C. for 24 hours.

[3] = Solubility of cholecalciferol and cholecalciferol phosphate (disodium, acid); format: physicochemical
Experimental: Aliquots of cholecalciferol, cholecalciferol phosphate disodium, and cholecalciferol phosphate acid were added to a range of solvents including propylene glycol (PG), distilled water, methanol, ethyl acetate, ethanol, n-hexane, and the visual solubility was determined. A precise assessment of the saturation solubility was for some of the solvent systems was made using high-performance liquid chromatography (HPLC). In the HPLC solubility studies, an excess of each solute was added into 2 mL of each test solvent. The solutions were left stirring overnight at room temperature, (RT), 22° C. The saturation of the solutions was confirmed by the visual appearance of crystals and the drug suspensions were filtered through 0.2 μm cellulose acetate syringe filters, diluted with excess of mobile phase, and the solute concentration of each sample was assessed using HPLC.

For cholecalciferol phosphate disodium, the “active release from PG solution, percent of applied active” value [1] was 17%, the “active release from PG solution” value ([1]; nylon membrane) was 512±17 μg/cm^2 and the chemical stability ([2]; PG) was 86±5.7%. For the same substance, the “chemical stability (in words)” value ([2]; conclusions) was “indication of chemical instability”, the chemical stability ([2]; extraction fluid 90:10 methanol:water) was 98±1.6% and the chemical stability ([2]; receiver fluid 50:50 PG:mobile phase (90:10 methanol:water pH 3.2)) was 71±2.7%. It also gave a Solubility ([3]; solvent PG) of 2670 ± 310 µg/mL and a Solubility ([3]; solvent PG + 5% ethanol) of 340 ± 610 µg/mL.
